Assay results published in patent US6699889B2, “Use of glucose uptake enhancer for reducing post-ischemic injury of the heart” (SmithKline Beecham p.l.c., priority 1998, dated 2004).

How the values were obtained:
[1] = system: isolated working hearts from male Wistar rats; test: Isolated working hearts from normal male Wistar rats: baseline ventricular function and recovery after 30 min zero-flow ischaemia and re-perfusion; conditions: normal rat hearts
Procedure: (§1) A solution of streptozotocin (STZ commercially available) was prepared in citrate buffer (40 mg/ml).
An acclimatisation period of at least one week was allowed prior to experiment.
(§2) Perfusion of isolated hearts: Rats were anaesthetized using thiopental sodium (50 mg/kg body weight intraperitoneally). Hearts from normoglycaemic and one-month STZ-induced diabetic rats, were quickly removed and immersed in ice-cold buffer to produce an immediate cessation of contractility. The aorta was dissected free and then mounted onto a cannula attached to a perfusion apparatus. Retrograde perfusion of the heart was started for 10 min by the Langendorff method and then switched to perfusion using the working-heart technique. […] The perfusate was not recirculated. Preload was held at a pressure of 15 cm H2O and afterload, as well as coronary perfusion pressure, were kept constant at 80 cm H2O.
Stroke volume (ml/beat) was derived by dividing cardiac output by heart rate.
Induction of global ischaemia and re-perfusion: Total ischaemia was initiated by clamping the left atrium and the aortic perfusion tubes and reducing coronary flow to zero for 30 minutes. The hearts were then re-perfused at 37° C. in working heart mode and recovery of ventricular function was followed for 30 minutes.
(§3) Statistical significance of differences was determined using Student's t-test.

[2] = system: isolated working hearts from STZ-diabetic rats; test: Isolated working hearts from STZ-diabetic male Wistar rats: baseline ventricular function and zero-flow ischaemia and re-perfusion; conditions: diabetic rat hearts
Procedure: as §1
The development of diabetes and its persistence were monitored by serial quantitative measurements of glucose in the urine with reagent strips. On the day of the experiment, the severity of diabetes was assessed by measuring glucose concentrations from blood samples collected at the time of heart excision. Only rats with plasma glucose levels exceeding 20 mM were considered diabetic and included in these experiments.
as §2
Stroke volume (ml/beat) was derived by dividing cardiac output by heart rate. […]
as §3

CN(CCOc1ccc(CC2SC(=O)NC2=O)cc1)c1ccccn1 (centres unmarked) [Compound (I), 5-[4-[2-(N-methyl-N-(2-pyridyl)amino)ethoxy]benzyl]thiazolidine-2,4-dione]
Protective properties in hearts subjected to zero-flow ischaemia in vitro [1]: protective properties of rapid onset | Protective properties in hearts subjected to zero-flow ischaemia in vitro [2]: protective properties of rapid onset
